Reference: US6274330A, “L-AP4 sensitive glutamate receptors” (ZymoGenetics, Inc., priority 1993, dated 2001)
Entries after “also recorded” stand apart in the source; their conditions may differ.

Tests used:
[1] = target: T1, mGluR7 (Rattus norvegicus, UniProt P35400); experiment: Inhibition of forskolin-stimulated cAMP production in BHK cells transfected with mGluR7; assay type: cell-based; settings: for antagonism of the inhibition of cAMP produced by L-AP4: antagonist 1 mM; for inhibition of forskolin-stimulated cAMP production: forskolin 10 μM, 10 minutes, IBMX 1 mM; for decrease in cAMP: agonist 100 μM; for agonist potency at mGluR7 compared with that previously observed for mGluR4 or mGluR6: cAMP inhibition, no full concentration-response analysis
T1 construct: RNA-injected Xenopus oocytes
T1 sequence (P35400 35-915): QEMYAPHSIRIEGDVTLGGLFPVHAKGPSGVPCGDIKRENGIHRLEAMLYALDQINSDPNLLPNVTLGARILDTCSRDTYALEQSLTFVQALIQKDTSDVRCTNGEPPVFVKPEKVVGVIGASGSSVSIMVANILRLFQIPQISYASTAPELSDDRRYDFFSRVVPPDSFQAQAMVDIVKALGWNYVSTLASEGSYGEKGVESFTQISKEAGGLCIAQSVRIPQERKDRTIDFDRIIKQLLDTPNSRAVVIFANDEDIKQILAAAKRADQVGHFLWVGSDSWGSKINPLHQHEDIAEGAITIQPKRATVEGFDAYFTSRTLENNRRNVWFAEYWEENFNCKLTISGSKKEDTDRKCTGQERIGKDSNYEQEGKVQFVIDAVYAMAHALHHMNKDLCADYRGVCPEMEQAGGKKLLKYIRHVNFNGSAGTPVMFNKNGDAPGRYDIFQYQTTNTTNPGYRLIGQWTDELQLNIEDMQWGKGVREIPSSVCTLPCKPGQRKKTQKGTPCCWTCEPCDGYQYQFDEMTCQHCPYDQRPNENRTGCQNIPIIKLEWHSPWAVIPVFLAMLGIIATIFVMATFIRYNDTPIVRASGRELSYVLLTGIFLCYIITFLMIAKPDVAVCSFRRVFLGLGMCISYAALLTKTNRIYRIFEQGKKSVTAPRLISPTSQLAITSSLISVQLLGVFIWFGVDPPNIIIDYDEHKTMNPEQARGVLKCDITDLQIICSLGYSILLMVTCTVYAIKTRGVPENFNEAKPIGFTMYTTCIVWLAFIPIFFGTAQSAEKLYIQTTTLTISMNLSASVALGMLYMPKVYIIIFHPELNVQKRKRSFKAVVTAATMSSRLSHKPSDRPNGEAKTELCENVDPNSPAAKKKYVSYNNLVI
Description: FIG. 2 depicts the inhibition of forskolin-stimulated cAMP production by mGluR7 in baby hamster kidney cells. BHK cells transfected with mGluR7 were preincubated for 20 minutes in IBMX (1 mM), then incubated for 10 minutes with forskolin (10 μM) in the presence or absence of agonists or antagonists.
BHK cells were transfected with mGluR7 subcloned into pZEM229R. Plasmid pZEM229R is a pUC18-based expression vector containing an EcoRI cloning site between a mouse metallothionein-I promoter and an SV40 transcription terminator. The vector also contains an expression unit of the SV40 early promoter, mouse dihydrofolate reductase gene, and SV40 terminator. The two expression units are in opposite orientations with their respective promoters adjacent to each other. E. coli HB101 transformed with pZEM229R was deposited with American Type Culture Collection, 12301 Parklawn Drive, Rockville, MD on Sep. 28, 1993.
(§1) The cells were grown in 10% fetal calf serum and Dulbecco's minimal essential media (DMEM), and transfected clones were selected by methotrexate resistance. Resistant clones were assayed for the presence of mGluR7 RNA and protein. Confluent cells were assayed for cAMP production (Amersham) in the presence of IBMX (1 mM) isobutylmethylxanthine; cAMP levels were measured after 10 minute treatment with forskolin (10 μM) in the presence or absence of mGluR agonists or antagonists. Assays were performed in triplicate three times and the average value from these experiments expressed as the mean cAMP levels plus and minus the standard deviation. The basal cAMP production was subtracted from the stimulated levels and the inhibition was plotted as a percent of the forskolin-stimulated control.

[2] = test system: mGluR1; experiment: Calcium-activated chloride current in Xenopus oocytes injected with mGluR1 mRNA (two-electrode voltage clamp); assay type: cell-based; settings: sister oocytes injected with mGluR1 mRNA
Description: (§2) For oocyte expression studies, xenopus laevis (Xenopus I, Ann Arbor) were anesthetized with tricaine and oocytes harvested using sterile technique. RNA transcripts from mGluR1 and mGluR7 were injected into Stage V-VI oocytes (1-100 ng RNA/oocyte) and the oocytes were assayed for production of a calcium-activated chloride current using a two-electrode voltage clamp. Harvesting of oocytes, solutions and recording methods were as described by Lester and colleagues (Dascal et al., Brain Res. 387: 201-209 [1986], which is incorporated herein by reference).

[3] = target: T1, mGluR7; experiment: Calcium-activated chloride current in Xenopus oocytes injected with mGluR7 mRNA (two-electrode voltage clamp); assay type: cell-based
Description: as §2

[4] = test system: mGluR4; experiment: Forskolin-stimulated cAMP assay in a BHK clone expressing mGluR4; assay type: cell-based; settings: L-AP4 1 mM
[5] = test system: wild-type BHK cells; experiment: cAMP levels in wild-type BHK cells; assay type: cell-based, hamster
Description: as §1

[6] = agonist 1 mM, BHK cells expressing mGluR7

SMILES | antagonism of the inhibition of cAMP produced by L-AP4 ([1]; BHK cells expressing mGluR7) | decrease in cAMP ([1]; BHK cells expressing mGluR7) | inhibition of forskolin-stimulated cAMP production [1, 6] | agonist potency at mGluR7 compared with that previously observed for mGluR4 or mGluR6 [1] | also measured
N[C@@H](CP(=O)(O)O)C(=O)O [L-AP3, 2-amino-3-phosphonopropionic acid] | did not antagonize |  |  |  | antagonism of mGluR7-mediated cAMP inhibition ([1]; antagonist 3 mM, BHK cells expressing mGluR7): did not antagonize
CC(N)(C(=O)O)c1ccc(C(=O)O)cc1 (racemic) [MCPG, RS-α-methyl-4-carboxyphenylglycine] | did not antagonize |  |  |  | 
N[C@@H](Cn1oc(=O)[nH]c1=O)C(=O)O [quisqualate] |  |  |  |  | inhibition of forskolin-stimulated cAMP production ([1]; agonist 0.5 mM, BHK cells expressing mGluR7): less efficient; also recorded: much less effective
N[C@@H](CCC(=O)O)C(=O)O [glutamate] |  | small decreases in cAMP which were not statistically significant | less efficient; also recorded: inhibited | much less potent agonists | glutamate response (calcium-activated chloride current) [2]: large calcium-activated chloride currents; glutamate response (calcium-activated chloride current) [3]: no glutamate responses
N[C@@]1(C(=O)O)CC[C@@H](C(=O)O)C1 [ACPD, (1S,3R)-1-aminocyclopentane-1,3-dicarboxylic acid] |  |  | less efficient; also recorded: much less effective |  | 
N[C@@H](CCP(=O)(O)O)C(=O)O [L-AP4, L-2-amino-4-phosphonobutryic acid] |  | small decreases in cAMP which were not statistically significant | largest inhibition; also recorded: inhibited | much less potent agonists | inhibition (cAMP) in BHK clone expressing mGluR4 [4]: 45%; effect on basal cAMP levels [5]: no significant effect; effect on forskolin-stimulated cAMP levels [5]: no significant effect
